According to patent publication US20150337003A1, “ABIRATERONE AND ANALOGS THEREOF FOR THE TREATMENT OF DISEASES ASSOCIATED WITH CORTISOL OVERPRODUCTION” (CORTENDO AB (PUBL), priority 2013, published 2015):
Converted amounts (≈) assume the structure as drawn.

How the values were obtained:
Cyp11 = assay: in vitro enzyme profile: Cyp11 inhibition; assay type: biochemical
Cyp21 = target: T1, Cyp21 (Homo sapiens, UniProt P08686); assay: in vitro enzyme profile: Cyp21 inhibition; assay type: biochemical
T1 sequence (P08686 1-495): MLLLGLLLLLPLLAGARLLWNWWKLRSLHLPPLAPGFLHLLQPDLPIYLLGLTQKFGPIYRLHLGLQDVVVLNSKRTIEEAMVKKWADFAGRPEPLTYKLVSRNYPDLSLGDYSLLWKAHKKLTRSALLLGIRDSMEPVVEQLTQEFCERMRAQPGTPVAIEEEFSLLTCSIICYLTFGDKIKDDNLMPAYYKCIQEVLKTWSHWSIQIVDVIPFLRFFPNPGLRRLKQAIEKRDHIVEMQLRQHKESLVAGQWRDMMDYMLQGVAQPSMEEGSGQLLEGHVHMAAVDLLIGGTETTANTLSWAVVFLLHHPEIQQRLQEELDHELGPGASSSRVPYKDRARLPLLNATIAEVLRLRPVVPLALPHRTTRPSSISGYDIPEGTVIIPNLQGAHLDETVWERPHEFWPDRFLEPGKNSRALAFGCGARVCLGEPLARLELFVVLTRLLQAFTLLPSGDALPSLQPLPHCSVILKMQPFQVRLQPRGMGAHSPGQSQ

Cyp3A4 = Cyp3A4 (Homo sapiens, UniProt P08684); assay: in vitro enzyme profile: Cyp3A4 inhibition; assay type: in vitro ADME
Chain of Cyp3A4 (P08684 whole entry): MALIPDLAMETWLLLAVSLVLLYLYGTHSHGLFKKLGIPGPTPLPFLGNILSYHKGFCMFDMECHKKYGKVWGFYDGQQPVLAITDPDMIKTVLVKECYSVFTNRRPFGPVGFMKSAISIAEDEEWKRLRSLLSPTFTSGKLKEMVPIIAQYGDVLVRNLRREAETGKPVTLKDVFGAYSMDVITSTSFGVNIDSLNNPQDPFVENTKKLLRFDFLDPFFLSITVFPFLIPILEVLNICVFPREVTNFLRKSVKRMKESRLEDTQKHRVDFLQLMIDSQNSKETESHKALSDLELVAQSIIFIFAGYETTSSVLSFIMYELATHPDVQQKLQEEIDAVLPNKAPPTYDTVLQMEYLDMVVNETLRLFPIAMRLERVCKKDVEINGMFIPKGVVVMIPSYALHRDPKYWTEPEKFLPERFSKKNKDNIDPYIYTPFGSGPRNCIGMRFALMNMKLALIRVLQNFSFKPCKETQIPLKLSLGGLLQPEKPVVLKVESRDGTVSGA

Cyp2D6 = Cyp2D6 (Homo sapiens, UniProt P10635); assay: in vitro enzyme profile: Cyp2D6 inhibition; assay type: in vitro ADME
Chain of Cyp2D6 (P10635 whole entry): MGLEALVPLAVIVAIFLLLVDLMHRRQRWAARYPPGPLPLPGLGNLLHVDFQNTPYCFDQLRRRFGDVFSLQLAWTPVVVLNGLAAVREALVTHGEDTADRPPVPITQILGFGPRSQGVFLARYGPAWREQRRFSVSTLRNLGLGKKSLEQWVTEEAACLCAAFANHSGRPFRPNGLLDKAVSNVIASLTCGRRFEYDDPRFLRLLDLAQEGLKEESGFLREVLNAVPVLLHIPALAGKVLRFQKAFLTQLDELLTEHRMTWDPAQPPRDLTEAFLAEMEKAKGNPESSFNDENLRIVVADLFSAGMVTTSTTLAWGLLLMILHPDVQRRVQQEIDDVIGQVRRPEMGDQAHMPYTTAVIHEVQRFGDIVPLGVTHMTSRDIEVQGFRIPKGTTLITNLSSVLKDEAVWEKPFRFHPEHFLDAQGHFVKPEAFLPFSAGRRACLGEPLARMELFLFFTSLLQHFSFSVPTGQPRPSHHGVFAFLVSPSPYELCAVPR

Cyp2C9 = Cyp2C9 (Homo sapiens, UniProt P11712); assay: in vitro enzyme profile: Cyp2C9 inhibition; assay type: in vitro ADME
Chain of Cyp2C9 (P11712 whole entry): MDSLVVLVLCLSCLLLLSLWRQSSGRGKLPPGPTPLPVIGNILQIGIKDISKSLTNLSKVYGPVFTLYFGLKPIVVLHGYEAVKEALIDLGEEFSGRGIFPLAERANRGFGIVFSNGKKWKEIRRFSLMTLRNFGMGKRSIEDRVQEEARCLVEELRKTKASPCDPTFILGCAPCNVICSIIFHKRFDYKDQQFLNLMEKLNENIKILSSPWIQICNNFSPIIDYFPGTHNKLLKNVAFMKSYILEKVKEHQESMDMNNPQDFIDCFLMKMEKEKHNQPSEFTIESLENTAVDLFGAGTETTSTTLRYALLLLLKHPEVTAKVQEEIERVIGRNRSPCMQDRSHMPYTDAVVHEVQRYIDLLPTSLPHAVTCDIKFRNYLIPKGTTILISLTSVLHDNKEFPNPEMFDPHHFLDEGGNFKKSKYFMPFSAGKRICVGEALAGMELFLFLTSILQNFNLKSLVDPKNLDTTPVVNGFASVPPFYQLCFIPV

Solubility = assay type: physicochemical
[1] = GPLM t1/2 (microsomal stability); assay type: in vitro ADME; conditions: guinea pig, liver microsomes
[2] = HLM t1/2 (microsomal stability); assay type: in vitro ADME; conditions: human, liver microsomes
[3] = tested on: cortisol and testosterone after ACTH stimulation; assay: elevation of cortisol and testosterone after ACTH stimulation in male Guinea pigs; assay type: in vivo, Guinea pig; conditions: for Cortisol, plasma / testosterone, plasma / Cortisol, plasma, Mean / testosterone, plasma, Mean: 25 IU/kg ACTH + 100 mg/kg PO; for Cortisol, plasma, Mean: mean of 4 Guinea pigs
Protocol: Each animal was dosed by oral gavage according to the following table at −0.5 hr, and then dosed by intramuscular injection with ACTH 25 IU/kg at 0 hr.
Animals were sedated under general inhalant anesthesia (3% isoflurane) and blood samples were retrieved at 1, 2 and 4 hrs via saphenous vein. Blood aliquots (400 uL) were collected in tubes coated with K2-EDTA, mixed gently, then kept on ice and centrifuged at 2,000 g for 5 minutes at 4° C. within 15 minutes of collection. The plasma was then harvested and kept frozen at −80° C. until further processing.

Cyp17 = target: T2, Cyp17 (Homo sapiens, UniProt P05093); assay: biochemical; conditions: read-out: Cyp17 IC60 (nM)
T2 sequence (P05093 1-508): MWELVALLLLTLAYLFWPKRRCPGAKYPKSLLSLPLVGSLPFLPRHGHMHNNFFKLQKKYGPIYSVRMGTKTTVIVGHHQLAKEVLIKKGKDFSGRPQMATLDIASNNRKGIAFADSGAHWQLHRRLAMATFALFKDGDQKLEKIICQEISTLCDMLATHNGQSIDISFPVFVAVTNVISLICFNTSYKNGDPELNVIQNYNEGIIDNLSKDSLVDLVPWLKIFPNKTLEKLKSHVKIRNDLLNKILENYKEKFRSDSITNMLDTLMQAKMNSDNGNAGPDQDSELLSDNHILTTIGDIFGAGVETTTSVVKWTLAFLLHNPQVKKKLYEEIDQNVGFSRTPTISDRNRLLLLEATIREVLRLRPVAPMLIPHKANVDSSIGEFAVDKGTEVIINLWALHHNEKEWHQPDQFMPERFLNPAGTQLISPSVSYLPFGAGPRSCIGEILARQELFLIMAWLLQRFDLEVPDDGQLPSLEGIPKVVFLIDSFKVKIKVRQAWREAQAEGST

[4] = male Guinea pigs, ACTH stimulation, 100 mg/kg PO, vs vehicle

C[C@]12CC[C@H](O)CC1=CC[C@@H]1[C@@H]2CC[C@]2(C)C(c3cccnc3)=CC[C@@H]12 [abiraterone, (3S,8R,9S,10R,13S,14S)-10,13-dimethyl-17-(pyridin-3-yl)-2,3,4,7,8,9,10,11,12,13,14,15-dodecahydro-1H-cyclopenta[a]phenanthren-3-ol]
Cyp11 IC60 (Cyp11): 430 nM | IC60 (Cyp21): 1.55 µM | Cyp3A4 IC60 (Cyp3A4): 969 nM | Cyp2D6 IC60 (Cyp2D6): 2000 nM | Cyp2C9 IC60 (Cyp2C9): 2000 nM | solubility (Solubility): 1 µM (≈ 0.35 µg/mL) | half-life [1]: 7.7 min | half-life [2]: 60 min | Cortisol, plasma ([3]; Guinea pig#19, 1 hr): 692 ng/mL | testosterone, plasma ([3]; Guinea pig#19, 1 hr): BQL | Cortisol, plasma ([3]; Guinea pig#19, 2 hr): 574 ng/mL | testosterone, plasma ([3]; Guinea pig#19, 2 hr): BQL | Cortisol, plasma ([3]; Guinea pig#19, 4 hr): 320 ng/mL | testosterone, plasma ([3]; Guinea pig#19, 4 hr): 0.328 ng/mL | Cortisol, plasma ([3]; Guinea pig#20, 1 hr): 821 ng/mL | testosterone, plasma ([3]; Guinea pig#20, 1 hr): BQL | Cortisol, plasma ([3]; Guinea pig#20, 2 hr): 720 ng/mL | testosterone, plasma ([3]; Guinea pig#20, 2 hr): 0.473 ng/mL | Cortisol, plasma ([3]; Guinea pig#20, 4 hr): 461 ng/mL | testosterone, plasma ([3]; Guinea pig#20, 4 hr): BQL | Cortisol, plasma ([3]; Guinea pig#21, 1 hr): 659 ng/mL | testosterone, plasma ([3]; Guinea pig#21, 1 hr): BQL | Cortisol, plasma ([3]; Guinea pig#21, 2 hr): 470 ng/mL | testosterone, plasma ([3]; Guinea pig#21, 2 hr): BQL | Cortisol, plasma ([3]; Guinea pig#21, 4 hr): 325 ng/mL | testosterone, plasma ([3]; Guinea pig#21, 4 hr): BQL | Cortisol, plasma ([3]; Guinea pig#22, 1 hr): 970 ng/mL | testosterone, plasma ([3]; Guinea pig#22, 1 hr): 0.501 ng/mL | Cortisol, plasma ([3]; Guinea pig#22, 2 hr): 876 ng/mL | testosterone, plasma ([3]; Guinea pig#22, 2 hr): 0.520 ng/mL | Cortisol, plasma ([3]; Guinea pig#22, 4 hr): 529 ng/mL | testosterone, plasma ([3]; Guinea pig#22, 4 hr): 0.461 ng/mL | effect on cortisol levels [3, 4]: significantly lower | effect on testosterone levels [3, 4]: significantly lower | Cortisol, plasma, Mean ([3]; 1 hr): 786 ng/mL | Cortisol, plasma, Mean ([3]; 2 hr): 660 ng/mL | Cortisol, plasma, Mean ([3]; 4 hr): 409 ng/mL | testosterone, plasma, Mean ([3]; 1 hr): 0.501 ng/mL | testosterone, plasma, Mean ([3]; 2 hr): 0.497 ng/mL | testosterone, plasma, Mean ([3]; 4 hr): 0.395 ng/mL | IC60 (Cyp17): 1.78 nM
